Measured values: ChEMBL document CHEMBL1153825, “From a natural product lead to the identification of potent and selective benzofuran-3-yl-(indol-3-yl)maleimides as glycogen synthase kinase 3beta inhibitors that suppress proliferation and survival of pancreatic cancer cells” (J Med Chem, 2009)

How the values were obtained:
HuP-T3 = assay: Growth inhibition of human HUPT3 cells after 72 hrs by MTS assay; format: functional, cell-based; conditions: HuP-T3, 72 h
MIA PaCa-2 = assay: Growth inhibition of human MIAPaCa2 cells after 72 hrs by MTS assay; format: functional, cell-based; conditions: MIA PaCa-2, 72 h
BXPC-3 = assay: Growth inhibition of human BxPC3 cells after 72 hrs by MTS assay; format: functional, cell-based; conditions: BXPC-3, 72 h
[1] = molecular target: Glycogen synthase kinase-3 beta (Homo sapiens, UniProt P49841); assay: Inhibition of human GSK3-beta by scintillation counting
Chain of Glycogen synthase kinase-3 beta (P49841 whole entry): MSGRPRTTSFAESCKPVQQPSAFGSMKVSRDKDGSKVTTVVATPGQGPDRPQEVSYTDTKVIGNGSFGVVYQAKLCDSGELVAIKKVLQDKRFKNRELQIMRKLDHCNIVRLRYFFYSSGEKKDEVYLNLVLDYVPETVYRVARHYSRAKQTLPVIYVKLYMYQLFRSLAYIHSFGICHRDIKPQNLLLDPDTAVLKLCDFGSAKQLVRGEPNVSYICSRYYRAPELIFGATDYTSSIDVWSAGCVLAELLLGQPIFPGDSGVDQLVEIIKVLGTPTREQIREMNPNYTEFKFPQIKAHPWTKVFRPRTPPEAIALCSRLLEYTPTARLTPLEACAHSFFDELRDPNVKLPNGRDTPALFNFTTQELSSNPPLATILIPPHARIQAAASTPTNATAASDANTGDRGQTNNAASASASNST

[2] = molecular target: T1, Cyclin-dependent kinase 2 (Homo sapiens, UniProt P24941)
[3] = molecular target: T2, Inhibitor of nuclear factor kappa-B kinase subunit beta (Homo sapiens, UniProt O14920); assay: Inhibition of IKK-beta up to 50 uM
T2 sequence (O14920 whole entry): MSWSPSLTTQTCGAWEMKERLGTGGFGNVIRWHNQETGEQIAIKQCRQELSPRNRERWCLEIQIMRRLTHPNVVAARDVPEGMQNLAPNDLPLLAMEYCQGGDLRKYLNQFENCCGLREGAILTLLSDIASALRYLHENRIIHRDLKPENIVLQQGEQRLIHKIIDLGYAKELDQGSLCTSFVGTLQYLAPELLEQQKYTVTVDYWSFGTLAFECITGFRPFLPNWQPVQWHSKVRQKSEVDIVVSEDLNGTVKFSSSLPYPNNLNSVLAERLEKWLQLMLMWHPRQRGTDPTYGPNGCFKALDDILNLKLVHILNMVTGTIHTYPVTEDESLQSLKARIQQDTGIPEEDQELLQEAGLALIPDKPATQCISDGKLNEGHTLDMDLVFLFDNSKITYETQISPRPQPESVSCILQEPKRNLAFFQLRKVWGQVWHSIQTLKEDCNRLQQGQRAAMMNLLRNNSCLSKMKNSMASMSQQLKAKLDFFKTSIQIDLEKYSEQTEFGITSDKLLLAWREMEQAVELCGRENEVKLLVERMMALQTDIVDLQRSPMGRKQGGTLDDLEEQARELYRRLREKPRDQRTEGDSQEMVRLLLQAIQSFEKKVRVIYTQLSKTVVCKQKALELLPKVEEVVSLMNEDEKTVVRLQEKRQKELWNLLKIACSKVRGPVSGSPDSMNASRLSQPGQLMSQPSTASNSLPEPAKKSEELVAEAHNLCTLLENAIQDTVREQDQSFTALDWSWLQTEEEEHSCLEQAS

[4] = molecular target: T3, Inhibitor of nuclear factor kappa-B kinase subunit alpha (Homo sapiens, UniProt O15111)
T3 sequence (O15111 whole entry): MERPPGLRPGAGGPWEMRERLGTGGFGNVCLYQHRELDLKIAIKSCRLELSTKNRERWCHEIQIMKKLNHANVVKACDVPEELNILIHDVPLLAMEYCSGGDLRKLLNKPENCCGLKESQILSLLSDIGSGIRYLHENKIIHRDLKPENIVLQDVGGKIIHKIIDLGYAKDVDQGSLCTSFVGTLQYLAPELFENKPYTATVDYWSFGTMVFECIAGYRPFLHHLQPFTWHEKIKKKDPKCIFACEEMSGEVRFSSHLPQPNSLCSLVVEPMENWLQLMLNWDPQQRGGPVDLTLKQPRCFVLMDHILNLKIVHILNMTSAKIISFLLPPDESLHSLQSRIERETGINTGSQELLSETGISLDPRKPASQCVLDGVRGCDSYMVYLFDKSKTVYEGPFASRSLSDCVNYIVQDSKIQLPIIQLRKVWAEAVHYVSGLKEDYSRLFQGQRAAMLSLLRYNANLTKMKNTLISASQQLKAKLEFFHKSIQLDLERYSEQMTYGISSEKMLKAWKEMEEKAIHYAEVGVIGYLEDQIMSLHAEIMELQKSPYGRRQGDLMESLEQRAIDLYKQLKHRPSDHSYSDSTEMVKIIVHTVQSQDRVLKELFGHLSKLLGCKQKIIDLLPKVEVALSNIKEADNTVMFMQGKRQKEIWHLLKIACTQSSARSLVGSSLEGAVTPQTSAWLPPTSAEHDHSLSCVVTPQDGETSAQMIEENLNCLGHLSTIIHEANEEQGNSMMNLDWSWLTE

[5] = molecular target: T1, Cyclin-dependent kinase 2; remark: listed apart in the source
[6] = molecular target: Cyclin-dependent kinase 1/cyclin B1 (Homo sapiens, UniProt P06493); assay: Inhibition of CDK1/Cyclin B; format: protein-complex assay
Chain of Cyclin-dependent kinase 1/cyclin B1 (P06493 whole entry): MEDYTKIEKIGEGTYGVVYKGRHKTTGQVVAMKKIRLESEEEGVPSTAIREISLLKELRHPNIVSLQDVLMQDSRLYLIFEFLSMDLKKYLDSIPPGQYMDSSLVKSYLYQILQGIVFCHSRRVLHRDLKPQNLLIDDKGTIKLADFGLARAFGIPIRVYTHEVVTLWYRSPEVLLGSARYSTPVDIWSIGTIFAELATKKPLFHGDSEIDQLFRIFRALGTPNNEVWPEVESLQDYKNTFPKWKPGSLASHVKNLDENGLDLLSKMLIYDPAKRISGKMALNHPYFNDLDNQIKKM
Chain of Cyclin-dependent kinase 1/cyclin B1 (P14635 whole entry, further chain): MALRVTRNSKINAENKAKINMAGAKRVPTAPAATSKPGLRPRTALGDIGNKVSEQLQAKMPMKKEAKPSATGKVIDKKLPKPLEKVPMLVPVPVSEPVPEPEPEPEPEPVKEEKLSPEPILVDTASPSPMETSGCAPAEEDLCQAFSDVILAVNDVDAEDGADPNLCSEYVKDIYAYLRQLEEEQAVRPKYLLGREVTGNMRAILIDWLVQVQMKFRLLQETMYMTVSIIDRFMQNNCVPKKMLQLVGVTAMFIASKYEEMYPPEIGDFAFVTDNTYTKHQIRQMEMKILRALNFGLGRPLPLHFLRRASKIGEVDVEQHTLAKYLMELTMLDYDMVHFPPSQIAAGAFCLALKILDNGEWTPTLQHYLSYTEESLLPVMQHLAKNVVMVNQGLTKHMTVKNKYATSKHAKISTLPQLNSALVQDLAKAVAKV

[7] = molecular target: RAC-gamma serine/threonine-protein kinase (Homo sapiens, UniProt Q9Y243); assay: Inhibition of AKT3 up to 50 uM
Chain of RAC-gamma serine/threonine-protein kinase (Q9Y243 whole entry): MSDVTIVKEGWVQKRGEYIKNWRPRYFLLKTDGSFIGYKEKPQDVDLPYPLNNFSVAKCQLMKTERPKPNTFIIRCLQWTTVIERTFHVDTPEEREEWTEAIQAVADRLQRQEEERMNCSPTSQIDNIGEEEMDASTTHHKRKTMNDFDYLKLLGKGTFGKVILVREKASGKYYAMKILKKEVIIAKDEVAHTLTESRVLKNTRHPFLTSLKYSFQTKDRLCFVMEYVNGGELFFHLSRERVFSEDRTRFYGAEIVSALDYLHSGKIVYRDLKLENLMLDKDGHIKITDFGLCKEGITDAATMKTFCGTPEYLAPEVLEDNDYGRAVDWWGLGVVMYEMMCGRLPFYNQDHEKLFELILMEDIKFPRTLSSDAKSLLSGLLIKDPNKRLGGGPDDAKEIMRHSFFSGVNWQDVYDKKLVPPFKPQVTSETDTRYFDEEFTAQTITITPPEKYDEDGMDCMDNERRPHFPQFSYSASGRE

[8] = molecular target: T4, Serine/threonine-protein kinase Chk1 (Homo sapiens, UniProt O14757); assay: Inhibition of CHK1
T4 sequence (O14757 whole entry): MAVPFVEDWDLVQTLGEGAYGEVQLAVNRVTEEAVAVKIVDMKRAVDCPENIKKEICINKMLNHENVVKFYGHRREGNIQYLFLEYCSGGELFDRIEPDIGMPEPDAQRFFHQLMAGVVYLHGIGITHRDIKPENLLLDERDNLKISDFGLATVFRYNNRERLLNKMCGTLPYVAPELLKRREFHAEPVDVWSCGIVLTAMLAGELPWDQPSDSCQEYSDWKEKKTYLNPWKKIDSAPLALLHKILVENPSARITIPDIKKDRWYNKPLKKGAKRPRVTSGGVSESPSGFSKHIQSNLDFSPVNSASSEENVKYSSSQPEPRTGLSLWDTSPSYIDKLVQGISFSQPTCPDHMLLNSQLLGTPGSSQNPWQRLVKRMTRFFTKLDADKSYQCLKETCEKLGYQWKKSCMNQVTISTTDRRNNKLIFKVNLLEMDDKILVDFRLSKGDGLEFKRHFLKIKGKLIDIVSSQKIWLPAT

[9] = molecular target: Mitogen-activated protein kinase 3 (Homo sapiens, UniProt P27361); assay: Inhibition of ERK1 up to 50 uM
Chain of Mitogen-activated protein kinase 3 (P27361 whole entry): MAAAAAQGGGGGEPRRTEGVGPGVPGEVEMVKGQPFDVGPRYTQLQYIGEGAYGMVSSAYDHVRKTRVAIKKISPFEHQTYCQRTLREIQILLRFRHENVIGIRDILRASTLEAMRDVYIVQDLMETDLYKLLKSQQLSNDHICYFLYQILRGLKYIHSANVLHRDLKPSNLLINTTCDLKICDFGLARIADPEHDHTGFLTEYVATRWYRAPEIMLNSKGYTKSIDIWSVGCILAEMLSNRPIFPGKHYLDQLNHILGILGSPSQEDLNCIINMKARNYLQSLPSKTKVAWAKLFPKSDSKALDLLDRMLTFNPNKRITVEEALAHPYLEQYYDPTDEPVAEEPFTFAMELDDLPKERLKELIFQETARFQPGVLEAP

[10] = molecular target: RAF proto-oncogene serine/threonine-protein kinase (Homo sapiens, UniProt P04049); assay: Inhibition of cRAF up to 50 uM
Chain of RAF proto-oncogene serine/threonine-protein kinase (P04049 whole entry): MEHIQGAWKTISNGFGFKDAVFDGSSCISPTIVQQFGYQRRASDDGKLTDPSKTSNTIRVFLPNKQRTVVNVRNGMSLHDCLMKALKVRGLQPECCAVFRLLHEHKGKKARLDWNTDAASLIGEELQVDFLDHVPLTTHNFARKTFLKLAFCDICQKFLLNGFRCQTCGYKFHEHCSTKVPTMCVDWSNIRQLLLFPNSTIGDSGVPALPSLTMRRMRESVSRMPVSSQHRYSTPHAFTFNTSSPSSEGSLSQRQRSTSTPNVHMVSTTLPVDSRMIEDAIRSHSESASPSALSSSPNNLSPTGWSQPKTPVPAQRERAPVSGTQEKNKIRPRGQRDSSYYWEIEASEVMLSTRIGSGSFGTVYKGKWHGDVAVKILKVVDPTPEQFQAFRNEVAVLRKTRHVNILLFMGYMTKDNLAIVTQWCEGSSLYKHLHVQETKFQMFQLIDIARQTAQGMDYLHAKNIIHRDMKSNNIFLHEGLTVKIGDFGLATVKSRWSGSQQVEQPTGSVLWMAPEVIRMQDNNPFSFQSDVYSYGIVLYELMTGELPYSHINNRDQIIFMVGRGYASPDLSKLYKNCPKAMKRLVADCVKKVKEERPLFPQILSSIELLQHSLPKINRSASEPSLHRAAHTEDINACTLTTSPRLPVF

Row | Structure (SMILES) | IC50 (MIA PaCa-2) | IC50 (BXPC-3) | IC50 [1] | IC50 (HuP-T3) | also measured
1 | COc1ccc(CNC(=O)Nc2ncc([N+](=O)[O-])s2)cc1 | 29 µM | 14 µM | – | 22 µM | –
2 | Cn1cc(C2=C(c3coc4ccc(F)cc34)C(=O)NC2=O)c2cc(C#CC3CC3)ccc21 | 34 µM | > 50 µM | – | > 50 µM | –
3 | Cn1cc(C2=C(c3coc4cc(OCC5CCC5)ccc34)C(=O)NC2=O)c2cc(F)c(Cl)cc21 | – | – | 4.09 µM | – | –
4 | Cn1cc(C2=C(c3coc4ccccc34)C(=O)NC2=O)c2cc(I)ccc21 | – | – | 0.0345 µM | > 50 µM | –
5 | Cn1cc(C2=C(c3coc4ccc(F)cc34)C(=O)NC2=O)c2cc(Cl)ccc21 | – | – | 0.042 µM | – | –
6 | COc1cccc2c(C3=C(c4cn(C)c5cc(I)c(F)cc45)C(=O)NC3=O)coc12 | – | – | – | – | IC50 [3]: Not Active; IC50 [4]: > 50 µM; IC50 [5]: > 50 µM; IC50 [6]: > 50 µM; IC50 [7]: Not Active; IC50 [8]: > 50 µM; IC50 [2]: > 50 µM; IC50 [9]: Not Active; IC50 [10]: Not Active
7 | Cn1cc(C2=C(c3ccc(Cl)cc3Cl)C(=O)NC2=O)c2ccccc21 [SB-216763] | 25 µM | – | – | – | –

Continued, in another order:

Row | IC50 (MIA PaCa-2) | IC50 (BXPC-3) | IC50 [1] | Structure (SMILES) | IC50 (HuP-T3) | also measured
8 | 8 µM | 6 µM | – | COc1cccc2c(C3=C(c4cn(C)c5cc(C(F)(F)F)ccc45)C(=O)NC3=O)coc12 | 6 µM | –
9 | > 50 µM | > 50 µM | – | COc1cc2c(C3=C(c4coc5ccccc45)C(=O)NC3=O)cn(C)c2cc1Cl | > 50 µM | –
10 | 3 µM | 2 µM | – | Cn1cc(C2=C(c3coc4ccccc34)C(=O)NC2=O)c2cc(F)c(Cl)cc21 | 2 µM | –
11 | 30 µM | – | – | Cn1cc(C2=C(c3coc4ccccc34)C(=O)NC2=O)c2cc(Br)ccc21 | 43 µM | –
12 | – | – | 0.00051 µM | Cn1cc(C2=C(c3coc4cc(CO)ccc34)C(=O)NC2=O)c2cc(Br)ccc21 | – | –
13 | – | – | 1.29 µM | Cn1cc(C2=C(c3coc4cc(OCC5CC5)ccc34)C(=O)NC2=O)c2cc(F)c(Cl)cc21 | – | –
14 | > 50 µM | > 50 µM | – | COCc1cccc2c(C3=C(c4coc5ccccc45)C(=O)NC3=O)cn(C)c12 | – | –
15 | 17 µM | 7 µM | – | Cn1cc(C2=C(c3coc4cc(F)c(F)cc34)C(=O)NC2=O)c2ccc3ccccc3c21 | 6 µM | –
16 | – | – | 0.0075 µM | COc1cccc2c(C3=C(c4cn(C)c5ccc(Br)cc45)C(=O)NC3=O)coc12 | – | IC50 [2]: 1.16 µM
17 | – | – | 0.87 µM | COc1ccc2c(C3=C(c4cn(C)c5cc(Cl)c(F)cc45)C(=O)NC3=O)coc2c1 | – | –
